Columns and labels:
[1] = system: CD8-MerTK in Ba/F3-CDM cells; assay: In cell MER kinase assay, Ba/F3-CDM cell proliferation without IL-3 (Celltiter-Glo); assay type: cell-based, murine; conditions: 48 hours compound treatment, read-out: Cell growth inhibition (GI50)
In short: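 Ba/F3 cells, IL-3-dependent, transfected with CD8-MerTK and grown without IL-3 in DMEM/10% FBS. IL-3-supplemented Ba/F3 cells run in parallel as a cytotoxicity control.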

[2] = target: human c-MER catalytic domain (Homo sapiens (Human), UniProt Q12866); assay: LanthaScreen TR-FRET kinase assay, c-MER; conditions: read-out: Mer TK inhibition (IC50); Biochemical IC50, TR-FRET, 10 uM ATP
Chain of human c-MER catalytic domain (Q12866 587-858): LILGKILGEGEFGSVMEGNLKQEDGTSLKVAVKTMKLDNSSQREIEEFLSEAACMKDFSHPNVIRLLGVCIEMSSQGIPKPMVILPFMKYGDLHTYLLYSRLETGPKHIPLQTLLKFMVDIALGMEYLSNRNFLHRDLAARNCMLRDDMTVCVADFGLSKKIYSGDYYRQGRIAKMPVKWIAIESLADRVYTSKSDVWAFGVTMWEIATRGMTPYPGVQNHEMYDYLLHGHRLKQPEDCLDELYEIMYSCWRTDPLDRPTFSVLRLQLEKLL

Compound | GI50 [1] | IC50 [2]
CCc1cc(CO[C@H]2CNC[C@@H]2NC(=O)c2cc(-c3ccc(N(C)C)cc3)cnc2N)ccc1C [Example 405, 2-amino-5-(4-(dimethylamino)phenyl)-N-((3S,4S)-4-((3-ethyl-4-methylbenzyl)oxy)pyrrolidin-3-yl)nicotinamide] | 100 to 500 nM | < 10 nM
CCc1cc(CO[C@H]2CNC[C@@H]2NC(=O)c2cc(-c3ccc(CC#N)cc3)cnc2N)ccc1C [Example 411, 2-amino-5-(4-(cyanomethyl)phenyl)-N-((3S,4S)-4-((3-ethyl-4-methylbenzyl)oxy)pyrrolidin-3-yl)nicotinamide] | 100 to 500 nM | < 10 nM
CCc1cc(CO[C@H]2CNC[C@@H]2NC(=O)c2cc(-c3cnn(C4CCNCC4)c3)cnc2N)ccc1C [Example 412, 2-amino-N-((3S,4S)-4-((3-ethyl-4-methylbenzyl)oxy)pyrrolidin-3-yl)-5-(1-(piperidin-4-yl)-1H-pyrazol-4-yl)nicotinamide] | > 1000 nM | < 10 nM
CCc1cc(CO[C@H]2CNC[C@@H]2NC(=O)c2cc(-c3cnn(C4CCN(C)CC4)c3)cnc2N)ccc1C [Example 413, 2-amino-N-((3S,4S)-4-((3-ethyl-4-methylbenzyl)oxy)pyrrolidin-3-yl)-5-(1-(1-methylpiperidin-4-yl)-1H-pyrazol-4-yl)nicotinamide] | 500 to 1000 nM | < 10 nM
Cc1ccc(CO[C@H]2CNC[C@@H]2NC(=O)c2cc(-c3cnn(C)c3)cnc2N)cc1 [Example 415, 2-amino-5-(1-methyl-1H-pyrazol-4-yl)-N-((3S,4S)-4-((4-methylbenzyl)oxy)pyrrolidin-3-yl)nicotinamide] | > 1000 nM | < 10 nM
CCc1cccc(CO[C@H]2CNC[C@@H]2NC(=O)c2cc(-c3cnn(C)c3)cnc2N)c1 [Example 416, 2-amino-N-((3S,4S)-4-((3-ethylbenzyl)oxy)pyrrolidin-3-yl)-5-(1-methyl-1H-pyrazol-4-yl)nicotinamide] | 100 to 500 nM | < 10 nM
CCc1cc(CO[C@H]2CNC[C@@H]2NC(=O)c2cc(-c3ccc(C(=O)NC4CCN(C)CC4)cc3)cnc2N)ccc1C [Example 419, 2-amino-N-((3S,4S)-4-((3-ethyl-4-methylbenzyl)oxy)pyrrolidin-3-yl)-5-(4-((1-methylpiperidin-4-yl)carbamoyl)phenyl)nicotinamide] | > 1000 nM | < 10 nM
CCc1cc(CO[C@H]2CN(C)C[C@@H]2NC(=O)c2cc(-c3cnn(C)c3)cnc2N)ccc1C [Example 426, 2-amino-N-((3S,4S)-4-((3-ethyl-4-methylbenzyl)oxy)-1-methylpyrrolidin-3-yl)-5-(1-methyl-1H-pyrazol-4-yl)nicotinamide] | 500 to 1000 nM | < 10 nM
CCc1cc(CO[C@H]2CN(C)C[C@@H]2NC(=O)c2cc(-c3cnn(C4CCN(C)CC4)c3)cnc2N)ccc1C [Example 433, 2-amino-N-((3S,4S)-4-((3-ethyl-4-methylbenzyl)oxy)-1-methylpyrrolidin-3-yl)-5-(1-(1-methylpiperidin-4-yl)-1H-pyrazol-4-yl)nicotinamide] | 100 to 500 nM | < 10 nM
CN1CCN(Cc2ccc(-c3ccc(CO[C@H]4CNC[C@@H]4NC(=O)c4cc(-c5cnn(C)c5)cnc4N)cc3)cc2)CC1 [Example 434, 2-amino-5-(1-methyl-1H-pyrazol-4-yl)-N-((3S,4S)-4-((4′-((4-methylpiperazin-1-yl)methyl)-[1,1′-biphenyl]-4-yl)methoxy)pyrrolidin-3-yl)-nicotinamide] | 500 to 1000 nM | < 10 nM
CN1CCN(Cc2ccc(-c3ccc(CO[C@H]4CN(C)C[C@@H]4NC(=O)c4cc(-c5cnn(C)c5)cnc4N)cc3)cc2)CC1 [Example 435, 2-amino-5-(1-methyl-1H-pyrazol-4-yl)-N-((3S,4S)-1-methyl-4-((4′-((4-methylpiperazin-1-yl)methyl)-[1,1′-biphenyl]-4-yl)methoxy)pyrrolidin-3-yl)-nicotinamide] | 100 to 500 nM | < 10 nM
CN1CCN(Cc2ccc(-c3ccc(CO[C@H]4CNC[C@@H]4NC(=O)c4cc(-c5cnn(C)c5)cnc4N)cc3)cc2C(F)(F)F)CC1 [Example 436, 2-amino-5-(1-methyl-1H-pyrazol-4-yl)-N-((3S,4S)-4-((4′-((4-methylpiperazin-1-yl)methyl)-3′-(trifluoromethyl)-[1,1′-biphenyl]-4-yl)methoxy)-pyrrolidin-3-yl)nicotinamide] | 500 to 1000 nM | < 10 nM
CN1CCN(Cc2ccc(-c3ccc(CO[C@H]4CN(C)C[C@@H]4NC(=O)c4cc(-c5cnn(C)c5)cnc4N)cc3)cc2C(F)(F)F)CC1 [Example 437, 2-amino-5-(1-methyl-1H-pyrazol-4-yl)-N-((3S,4S)-1-methyl-4-((4′-((4-methylpiperazin-1-yl)methyl)-3′-(trifluoromethyl)-[1,1′-biphenyl]-4-yl)-methoxy)pyrrolidin-3-yl)nicotinamide] | < 100 nM | < 10 nM
CC(c1ccc(-c2ccc(CO[C@H]3CNC[C@@H]3NC(=O)c3cc(-c4cnn(C)c4)cnc3N)cc2)cc1)N1CCN(C)CC1 (stereo partly drawn) [Example 438, 2-amino-5-(1-methyl-1H-pyrazol-4-yl)-N-((3S,4S)-4-((4′-(1-(4-methylpiperazin-1-yl)ethyl)-[1,1′-biphenyl]-4-yl)methoxy)pyrrolidin-3-yl)-nicotinamide] | 500 to 1000 nM | < 10 nM
CC(c1ccc(-c2ccc(CO[C@H]3CN(C)C[C@@H]3NC(=O)c3cc(-c4cnn(C)c4)cnc3N)cc2)cc1)N1CCN(C)CC1 (stereo partly drawn) [Example 439, 2-amino-5-(1-methyl-1H-pyrazol-4-yl)-N-((3S,4S)-1-methyl-4-((4′-(1-(4-methylpiperazin-1-yl)ethyl)-[1,1′-biphenyl]-4-yl)methoxy)pyrrolidin-3-yl)-nicotinamide] | 100 to 500 nM | < 10 nM
Cn1cc(-c2cnc(N)c(C(=O)N[C@H]3CNC[C@@H]3OCc3ccc(-c4ccc(C(C)(C)N5CCN(CCO)CC5)cc4)cc3)c2)cn1 [Example 440, 2-amino-N-((3S,4S)-4-((4′-(2-(4-(2-hydroxyethyl)piperazin-1-yl)propan-2-yl)-[1,1′-biphenyl]-4-yl)methoxy)pyrrolidin-3-yl)-5-(1-methyl-1H-pyrazol-4-yl)nicotinamide] | > 1000 nM | < 10 nM
CN1C[C@H](NC(=O)c2cc(-c3cnn(C)c3)cnc2N)[C@@H](OCc2ccc(-c3ccc(C(C)(C)N4CCN(CCO)CC4)cc3)cc2)C1 [Example 441] | 100 to 500 nM | < 10 nM
CC(c1ccc(-c2ccc(CO[C@H]3CNC[C@@H]3NC(=O)c3cc(-c4cnn(C)c4)cnc3N)cc2)cc1)N1CCN(CCO)CC1 (stereo partly drawn) [Example 442, 2-amino-N-((3S,4S)-4-((4′-(1-(4-(2-hydroxyethyl)piperazin-1-yl)ethyl)-[1,1′-biphenyl]-4-yl)methoxy)pyrrolidin-3-yl)-5-(1-methyl-1H-pyrazol-4-yl)nicotinamide] | > 1000 nM | < 10 nM
CC(c1ccc(-c2ccc(CO[C@H]3CN(C)C[C@@H]3NC(=O)c3cc(-c4cnn(C)c4)cnc3N)cc2)cc1)N1CCN(CCO)CC1 (stereo partly drawn) [Example 443, 2-amino-N-((3S,4S)-4-((4′-(1-(4-(2-hydroxyethyl)piperazin-1-yl)ethyl)-[1,1′-biphenyl]-4-yl)methoxy)-1-methylpyrrolidin-3-yl)-5-(1-methyl-1H-pyrazol-4-yl)nicotinamide] | < 100 nM | < 10 nM
Cn1cc(-c2cnc(N)c(C(=O)N[C@H]3CNC[C@@H]3OCc3ccc(-c4ccc(CN5CCN(CCO)CC5)c(C(F)(F)F)c4)cc3)c2)cn1 [Example 444, 2-amino-N-((3S,4S)-4-((4′-((4-(2-hydroxyethyl)piperazin-1-yl)-methyl)-3′-(trifluoromethyl)-[1,1′-biphenyl]-4-yl)methoxy)pyrrolidin-3-yl)-5-(1-methyl-1H-pyrazol-4-yl)nicotinamide] | > 1000 nM | < 10 nM
CN1C[C@H](NC(=O)c2cc(-c3cnn(C)c3)cnc2N)[C@@H](OCc2ccc(-c3ccc(CN4CCN(CCO)CC4)c(C(F)(F)F)c3)cc2)C1 [Example 445, 2-amino-N-((3S,4S)-4-((4′-((4-(2-hydroxyethyl)piperazin-1-yl)-methyl)-3′-(trifluoromethyl)-[1,1′-biphenyl]-4-yl)methoxy)-1-methylpyrrolidin-3-yl)-5-(1-methyl-1H-pyrazol-4-yl)nicotinamide] | < 100 nM | < 10 nM
Cn1cc(-c2cnc(N)c(C(=O)N[C@H]3CNC[C@@H]3OCc3ccc(-c4ccc(CN5CCN(CCO)CC5)cc4)cc3)c2)cn1 [Example 446, 2-amino-N-((3S,4S)-4-((4′-((4-(2-hydroxyethyl)piperazin-1-yl)-methyl)-[1,1′-biphenyl]-4-yl)methoxy)pyrrolidin-3-yl)-5-(1-methyl-1H-pyrazol-4-yl)-nicotinamide] | > 1000 nM | < 10 nM
CN1C[C@H](NC(=O)c2cc(-c3cnn(C)c3)cnc2N)[C@@H](OCc2ccc(-c3ccc(CN4CCN(CCO)CC4)cc3)cc2)C1 [Example 447, 2-amino-N-((3S,4S)-4-((4′-((4-(2-hydroxyethyl)piperazin-1-yl)-methyl)-[1,1′-biphenyl]-4-yl)methoxy)-1-methylpyrrolidin-3-yl)-5-(1-methyl-1H-pyrazol-4-yl)nicotinamide] | < 100 nM | < 10 nM
CN1CCN(Cc2ccc(-c3ccc(CO[C@H]4COC[C@@H]4NC(=O)c4cc(-c5cnn(C)c5)cnc4N)cc3)cc2)CC1 [Example 448, 2-amino-5-(1-methyl-1H-pyrazol-4-yl)-N-((3S,4R)-4-((4′-((4-methylpiperazin-1-yl)methyl)-[1,1′-biphenyl]-4-yl)methoxy)tetrahydrofuran-3-yl)-nicotinamide] | < 100 nM | < 10 nM
